According to patent US20070037756A1, “Compositions and methods for the prevention and treatment of circulatory conditions” (LEADTREK, INC, priority 2005, published 2007):

Assays:
male Sprague-Dawley rats = test: Animal Model (In Vivo) Assay For Platelet Aggregation Activity using arteriovenous shunts; design: species or system rat; conditions: oral; for Thrombus weight (newly formed thrombus wet weight): glycerol glucoside derivative 50, 100 mg/kg, aspirin 30 mg/kg x 4 times, 120 min after treatment, shunt 15 minutes, saline 12.9 mg
Procedure: Assays for platelet aggregation activity using arteriovenous shunts were carried out as provided in Umetsu et al., “Effect Of 1-Methyl-2-Mercapto-5(3-Pyridyl)-Imidazole (KC-6141), An Antiaggregation Compound, On Experimental Thrombosis In Rats” Thromb Haemostasis 39:74-83 (1978); and Tang et al., “Anti-Thrombotic Activity Of PDR, A Newly Synthesized L-Arg Derivative, On Three Thrombosis Models In Rats” Thrombosis Research 110:127-133 (2003). Briefly, male Sprague-Dawley rats weighing 320-380 g were used after overnight fasting. The rats were administered orally with: i) a negative control (isotonic saline): ii) a glycerol glucoside derivative (50, 100 mg/kg); and iii) a positive control compound, aspirin (30 mg/kg x 4 times). A 75 min period occurred between each dose to allow the return of homeostasis.
The left jugular vein and the right carotid artery were cannulated with a 4 cm long polyethylene tube (o.d. 1 mm) while being infused with 50 μ/kg i.v. heparin. These catheters were then connected to the ends of a 15 cm long polyethylene tube (o.d. 2 mm) containing a 5 cm long suture silk thread (no. 4). Before the silk thread was placed in the polyethylene tube a pre-treatment wet weight was determined (i.e., a pre-thrombus formation weight). At 120 min after each drug treatment, the blood flow through the shunt was measured for 15 minutes. The silk thread, now containing newly formed thrombi, was gently removed, and a post-treatment wet weight was measured immediately. The newly formed thrombus wet weight was determined by subtracting the pre-treatment silk wet weight from the post-treatment silk wet weight. Thrombus weight for saline was 12.9 mg, for BH-2 (Regaloside C (2)) was 8.8 mg, and for aspirin was 7.1 mg (see FIG. 12).
The rate of thrombosis inhibition was calculated with the equation as follows: % Thrombosis inhibition=(A−A1)/A×100%
Where A was the newly formed thrombus wet weight of the control group (i.e., Saline), and A1 was the newly formed thrombus wet weight of the test derivative or positive control compound (i.e., aspirin).

Rat PRP = test: Assay of in Vitro Antiplatelet Aggregation (turbidimetry, rat PRP stimulated with ADP and collagen); format: cell-based; conditions: maximal aggregation induced by ADP and collagen
Procedure: Platelet aggregation was determined using methods and minor variations as described in Choo et al., Biol. Pharm. Bull. 25(10) 1328-1332 (2002) and Born et al., J. Physiol., 168, 178-195 (1963). For example, blood from rats was collected by cardiac puncture into a plastic flask containing 2.2% sodium citrate (1:9 v/v). Platelet-rich plasma (PRP) was prepared by centrifugation of the blood at 120×g for 15 min and further centrifuged at 850×g for 10 min to prepare platelet poor plasma (PPP). The supernatant was pooled and centrifuged at 600×g for 15 min at room temperature. The platelet pellets were washed with modified Tyrode-HEPES buffer (129 mM NaCl, 2.8 mM KCl, 8.9 mM NaHCO3, 0.8 mM MgCl2, 0.8 mM KH2PO4, 2 mM EGTA, 5.6 mM glucose, 10 mM HEPES, 0.35% BSA, pH 7.4) and centrifuged at 600×g for 15 min. Then platelet pellets were gently resuspended in Tyrode-HEPES buffer and used in the experiments.
Platelet aggregation was measured by turbidimetry using a dual-channel Whole Lumini-lonized Calcium Aggregometer (Chrono-Log Co., Ltd., Havertown, Pa., U.S.A.). Rat PRP ([…]) was incubated at 37° C. for 2 min in the aggregometer with stirring at 1200 rpm and then stimulated with ADP and collagen. […] Changes in light transmission were recorded for 10 min after stimulation with these agents. […]

Structure (SMILES)	% Thrombosis inhibition (male Sprague-Dawley rats; (A-A1)/A x 100% versus saline control, rat arteriovenous shunt) [%]	Thrombus weight (newly formed thrombus wet weight) (male Sprague-Dawley rats) [mg]	inhibition at 10 µM (Rat PRP) [%]
O=C(/C=C/c1ccc(O)c(O)c1)OC[C@@H](O)CO[C@@H]1O[C@H](CO)[C@@H](O)[C@H](O)[C@H]1O [BH-2, regaloside C]	31.7	8.8	–
CC(=O)Oc1ccccc1C(=O)O [aspirin, acetylsalicylic acid, reference compound]	–	7.1	–
O=C(O)c1cc(O)c2c(c1)C(=O)c1cccc(O)c1C2=O [rhein]	–	–	1.8
